# What was measured:
# [1] = Cell viability, LDH release assay, normal HUVECs; conditions: human, normal HUVECs, Mean % of viable cells ± SD, HUVEC
# Method: (§1) The studied compounds were also screened for their cytotoxic effects on HCT-116 and LoVo colon carcinoma cells, as well as normal HUVECs, using the standard LDH assay at a concentration of 100 µg/mL.
# (§2) The antiproliferative activities of the newly synthesized compounds 3a–e, 8, 9a–c, 13, 14, 17, 18a–h, 20, 22, 23 and 25 were examined on human colon HCT-116 and LoVo cell lines as well as HUVEC (American Type Culture Collection, Manassas, VA, USA). […]
# medium served used as negative and positive controls, respectively. Percentages of viable cells […]
# were calculated based on relative optical density (OD) values (at 550 nm) for compound-treated […]
# wells (final concentration of 100 μg/mL), compared to the negative control, and expressed as mean value (%) ± SD from two replicates. Graphing dose-response curves representing the compound […]
# concentration versus the percentages of viable cells was also conducted to deduce the half - […]
# Additionally, the safety profiles of the studied compounds were assessed against normal cells […]
# (HUVECs) at final concentration of 100 μg/mL . HUVECs were grown in Dulbecco’s Modified Eagle’s Medium supplemented with 10% FBS, 2 mM glutamine (Sigma Aldrich), 100 units/mL penicillin and […] streptomycin (Life Technologies; Paisley, UK). […]
# [2] = test system: HCT-116 colon carcinoma cells; assay: Cell viability, LDH release assay, HCT-116; conditions: Homo sapiens, HCT-116, 48 h; for viability at 100 µg/mL: read-out: Mean % of viable cells ± SD, HCT-116, 100 µg/mL, 48 h, LDH release assay; for IC50: read-out: Mean IC50 Values in µM ± SD, HCT-116 cells
# Method: as §1, §2
# (§3) S3.2.4. Cell culture and viability assay.
# (§4) The cytotoxic activities of the newly synthesized compounds (3a-e, 8, 9a-c, 13, 14, 17, 18a-h, 20, 22,
# (§5) 23, and 25) were examined on human colon cancer cell lines HCT-116 and Lovo (American Type
# (§6) Culture Collection, USA). Various concentrations (50, 100, 200, and 400 μg/mL) of test compounds
# (§7) were prepared in Dulbecco’s Modified Eagles Medium (PAN-Biotech, Barcelona, Spain),
# [3] = biological target: recombinant human LDHA protein (Homo sapiens, UniProt P00338); assay: In vitro LDHA inhibitory assay (NADH consumption); type: biochemical; conditions: 100 µg/mL, three replicates; read-out: Mean Inhibition Percent ± SD, LDHA
# Excerpt: The LDHA inhibitory efficiencies were investigated on Spectramax M2 spectrofluorometer via measuring the amounts of the consumed NADH^40 using an NAD^+/NADH quantification kit. […]
# S3.2.3. In vitro LDHA inhibitory assay.
# The LDHA inhibitory activity of the test compounds was investigated using Spectramax M2
# spectrofluorometer by measuring the amounts of the consumed NADH [42] employing
# NAD+/NADH quantification kit. Briefly, the assay medium containing various concentrations of
# each test compound (50, 100, 200 and 300 μg/mL) was incubated in assay medium composed of 20
# mM of HEPES-K+ buffer (pH 7.2), 20 μM of NADH, 2 mM of pyruvate and 10 ng of purified
# recombinant human LDHA protein for 10 min utes. The activity of LDHA would result in reduction
# of pyruvate into lactate with concomitant oxidation of NADH to NAD +. Since NADH (reduced
# […] by monitoring the change in the intensity of the fluorescence
# at 340 nm over a 10-minute period. The rate of the fluorescence change (slope) in treated samples
# was compared to that obtained from negative control experiment (100 % enzymatic activity) to
# determine the percentage of inhibition. The IC50 value—defined as the compound concentration
# required to reduce the luminescence by 50%, compared to untreated control wells—was
# determined for each compound from the corresponding dose–response curve generated by
# plotting LDHA inhibition (%) against compound concentration.
# was used as the reference LDHA inhibitor. […]
# PDK-1 = PDK-1 (Homo sapiens, UniProt Q15118); assay: In vitro PDK-1 inhibition assay (Kinase-Glo luminescent kinase kit); type: biochemical; conditions: 100 µg/mL, three replicates; read-out: Mean Inhibition Percent ± SD, PDK-1
# Chain of PDK-1 (Q15118 29-436): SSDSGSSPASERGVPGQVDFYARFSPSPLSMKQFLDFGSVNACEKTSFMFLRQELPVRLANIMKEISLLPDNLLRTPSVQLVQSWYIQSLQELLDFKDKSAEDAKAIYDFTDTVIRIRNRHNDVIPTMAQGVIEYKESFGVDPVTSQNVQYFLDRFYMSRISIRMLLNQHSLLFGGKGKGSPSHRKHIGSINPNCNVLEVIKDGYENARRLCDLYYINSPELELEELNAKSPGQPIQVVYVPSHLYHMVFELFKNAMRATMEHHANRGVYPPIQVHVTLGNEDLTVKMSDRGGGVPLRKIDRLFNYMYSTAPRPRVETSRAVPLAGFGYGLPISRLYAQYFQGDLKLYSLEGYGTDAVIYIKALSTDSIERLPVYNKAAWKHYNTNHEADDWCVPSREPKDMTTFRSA
# Method: Principally, the PDK-1 inhibitory activities were evaluated using the non-radioactive Kinase-Glo™ Luminescent Kinase Kit (Promega Corporation, Madison, WI, USA) following the instructions of the manufacturer.
# S3.2.2. In vitro PDK-1 inhibition assay.
# The PDK-1 inhibitory activities of the test compounds were evaluated using the non-radioactive
# Kinase-Glo™ Luminescent Kinase kit (Promega Corporation, Madison, WI, USA), following the
# manufacturer’s protocol. Briefly, 5 μL of assay buffer—containing 10 × 250 mM Tris-HCl, 50 mM
# MgCl2, 5 mM ethyleneglycol-bis(β-aminoethylether)-N,N,N′,N′-tetraacetic acid (EGTA), 10 mM
# ethylenedi- aminetetraacetic acid (EDTA), and 10 mM dithiothreitol (DTT)—was added to each
# well of a 96-well plate, along with 25 μL of distilled water. Subsequently, 5 μL of each test
# compound at various concentrations (50, 100, 200 and 300 μg/mL in 1% DMSO) was added to the
# respective wells, except for the two control wells, which received 5 μL of either PBS buffer or 1%
# DMSO. Then, 5 μL of pyruvate dehydrogenase E1 (PDH E1) protein (10 μM) and 5 μL of ATP
# (10 μM) were added to each well. To initiate phosphorylation, 5 μL of PDK-1 (20 μM) in protein
# buffer (1 mM MgCl2, 2000 mM KCl, 40 mM K3PO4) was added to all the wells except the control
# wells, which received 5 μL of protein buffer instead. The plate was then mixed thoroughly and
# incubated at 37 °C for 30 minutes. After incubation, 50 μL of kinase-Glo® reagent was added to each
# well, followed by a 10-minute incubation at room temperature with gentle shaking to stabilize the
# luminescent signal. Luminescence was then measured using a microplate reader.
# The IC50 value—defined as the concentration of a compound required to reduce luminescence by
# 50%, compared to untreated control wells—was determined for each compound from the
# corresponding dose–response curve generated by plotting PDK-1 inhibition (%) versus compound
# concentration. Sodium dichloroacetate (SDA, 1000 μM) was used as a reference PDK-1inhibitor. […]
# [4] = test system: LoVo colon carcinoma cells; assay: Cell viability, LDH release assay, LoVo; conditions: Homo sapiens, LoVo, 48 h; for viability at 100 µg/mL: read-out: Mean % of viable cells ± SD, LoVo, 100 µg/mL, 48 h, LDH release assay; for IC50: read-out: Mean IC50 Values in µM ± SD, LoVo cells
# Method: as §1, §2, §3, §4, §5, §6, §7
# [5] = DPPH radical scavenging assay; conditions: three independent experiments; read-out: Mean IC50 (mM) for initial DPPH radicals ± SD
# Method: The antioxidant activities of the studied compounds were assessed using the 1,1-diphenyl-2-picrylhydrazyl (DPPH) radical scavenging method as detailed by Bersuder et al.. The results were expressed as IC50 (mM)—the concentration of the test compound required to neutralize 50% of DPPH radicals.
# The antioxidant efficiencies of target compounds were determined using the 1,1-diphenyl-2-picrylhydrazyl (DPPH) radical scavenging method as detailed by Bersuder et al.. […]
# S3.2. Evaluation of Biological Activities.
# S3.2.1. In vitro DPPH radical scavenging assay.
# The antioxidant efficiencies of compounds—3a−e, 8, 9a−c, 13, 14, 17, 18a−h, 20, 22, 23, and 25—were
# determined using the 1,1-diphenyl-2-picrylhydrazyl (DPPH) radical scavenging method as
# detailed by Bersuder et al.. Fundamentally, the purple color of the stabilized DPPH radical
# fades in the presence of an antioxidant, thus, the change of absorbance can be followed
# spectrophotometrically at 519 nm. In the assay, equal volumes (0.5 mL) of DPPH ethanolic solution
# and each compound (0-2 mg/mL in DMSO) or butylated hydroxytoluene (BHT) as the reference
# were mixed well by shaking. The negative control consisted of the same amount of DMSO and
# DPPH solution. After, incubation all mixtures at room temperature in the dark for one hour, the
# absorbance of the residual DPPH radicals was measured at 519 nm using the UV‐vis
# spectrophotometer. The DPPH radical scavenging activity of each compound (%) was calculated
# Scavenging activity = (1 − Acompound/AControl) * 100, where Acompound and Acontrol the absorbance values
# of each tested compound (or BHT) and the negative control, respectively. The half maximal
# inhibitory concentration (IC50) for each compound in mg/mL was deduced by graphing the dose-
# response curve relating the scavenging activity (%) to the compound concentration. Data points
# represent the mean ± standard deviation (SD) of three independent determinations.
Compound,inhibition at 100 µg/mL [3] [%],inhibition at 100 µg/mL (PDK-1) [%],IC50 [5] [mM],IC50 [2] [µM],IC50 [4] [µM],"viability at 48 h, 100 µg/mL [1] [%]",viability at 100 µg/mL [2] [%],viability at 100 µg/mL [4] [%]
"CCOC(=O)c1sc(/N=C/c2cc(Br)c(O)c(OC)c2)nc1C [Compound 9a, Ethyl (E)-2-((3-bromo-4-hydroxy-5-methoxybenzylidene)amino)-4-methyl thiazole-5-carboxylate]",40.5 ± 2.19,26.9 ± 2.62,1.55 ± 0.035,,,70.3 ± 1.53,72 ± 2.65,65.3 ± 3.54
"O=c1[nH]cc(F)c(=O)[nH]1 [Compound 5-FU, 5-Fluorouracil, reference compound]",,,,27 ± 1.87,20 ± 3.21,,,

# Continued, in another order:
inhibition at 100 µg/mL [3] [%],inhibition at 100 µg/mL (PDK-1) [%],IC50 [5] [mM],IC50 [2] [µM],IC50 [4] [µM],Compound,"viability at 48 h, 100 µg/mL [1] [%]",viability at 100 µg/mL [2] [%],viability at 100 µg/mL [4] [%]
16.6 ± 0.78,66.7 ± 1.53,1.38 ± 0.039,210 ± 2.42,132 ± 7.4,"COc1cc(OC)c(/C=N/n2c(C)nc3cc(OC)c(OC)cc3c2=O)c(OC)c1 [Compound 18a, (E)-6,7-Dimethoxy-2-methyl-3-((2,4,6-trimethoxybenzylidene)amino)quinazolin-4(3H)-one]",85 ± 1,40.7 ± 4.16,48.3 ± 2.83
36.8 ± 1.91,30 ± 1,0.781 ± 0.046,,,"COc1cc(OC)c(/C=N/n2c(C)nc3ccc(F)cc3c2=O)c(OC)c1 [Compound 18e, (E)-6-Fluoro-2-methyl-3-((2,4,6-trimethoxybenzylidene)amino)quinazolin-4(3H)-one]",83 ± 3.61,87.3 ± 2.08,88.7 ± 3.21
21.1 ± 0.99,44.7 ± 1.53,0.606 ± 0.015,,,"COc1cc2nc(C)n(/N=C/c3ccc(C(F)(F)F)cc3)c(=O)c2cc1OC [Compound 18c, (E)-6,7-Dimethoxy-2-methyl-3-((4-(trifluoromethyl)benzylidene)amino)quinazolin-4(3H)-one]",91.3 ± 2.08,71.3 ± 6.51,63 ± 3

# — PMC12196476, “New Nitrogen-, Oxygen-, and Sulfur-Containing Heterocyclic Compounds as Anti-Colon Cancer Agents: Synthesis, Multitargeted Evaluations, Molecular Docking Simulations and ADMET Predictions” (Pharmaceuticals, 2025)
